Laboratory results from paper PMC11900932 (International Journal of Molecular Sciences, 2025).
Structures can show the parent of a compound that is named as a salt. Where two headings read alike, the source gives them in different places.

Columns and labels:
[1] = biological target: T1, SARS-CoV-2 3CL^pro (Severe acute respiratory syndrome coronavirus 2, UniProt P0DTD1); conditions: cited from earlier work
[2] = biological target: T2, CTSL (Homo sapiens, UniProt P07711); test: Host protease selectivity test, Cathepsin L; format: biochemical; conditions: 5 and 50 μM
T2 construct: purchased SinoBiological, Beijing, China
T2 sequence (P07711 114-333): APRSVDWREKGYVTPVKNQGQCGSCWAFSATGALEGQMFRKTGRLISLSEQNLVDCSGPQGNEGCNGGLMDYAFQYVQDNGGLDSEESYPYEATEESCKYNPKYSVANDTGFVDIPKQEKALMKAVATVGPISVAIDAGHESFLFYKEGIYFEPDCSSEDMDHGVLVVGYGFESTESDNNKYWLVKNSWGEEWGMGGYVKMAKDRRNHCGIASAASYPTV
Method: Cathepsin L (CTSL) (SinoBiological, Beijing, China) at a final concentration of 100 nM in buffer (20 mM sodium acetate, 1 mM EDTA, and 5 mM DTT, pH 5.5) was activated by incubation at 30 °C. Then, the working solution of CTSL was diluted into 300 pM with the reaction buffer and incubated for 30 min. The addition of 5 μM FRET substrate Z-Phe-Arg-AMC (NJPeptide, Nanjing, China) initiated the reaction. The fluorescence signals at 360 nm (excitation)/460 nm (emission) were measured for 20 min with the Cytation 5 plate reader (BioTek, Winooski, VT, USA).

[3] = biological target: T1, SARS-CoV-2 3CL^pro; format: biochemical
[4] = biological target: T3, CTRC (Homo sapiens, UniProt Q99895); test: Host protease selectivity test, Chymotrypsin; format: biochemical; conditions: 5 and 50 μM
T3 construct: purchased Novoprotein, Suzhou, China
T3 sequence (Q99895 30-268): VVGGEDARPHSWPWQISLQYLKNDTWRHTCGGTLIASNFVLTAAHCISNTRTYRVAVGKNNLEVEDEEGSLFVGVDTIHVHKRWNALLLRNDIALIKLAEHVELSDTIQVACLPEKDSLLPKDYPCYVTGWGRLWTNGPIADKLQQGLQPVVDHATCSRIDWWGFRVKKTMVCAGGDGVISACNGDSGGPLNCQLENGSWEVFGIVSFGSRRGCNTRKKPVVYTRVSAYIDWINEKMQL
Method: Chymotrypsin (CTRC) (Novoprotein, Suzhou, China) at a final concentration of 5 μg/mL was incubated in a buffer solution containing 50 mM Tris, 10 mM CaCl2, and 150 mM NaCl at pH 7.5 for a period of 30 min. Subsequently, trypsin was added to the mixture at the same concentration (5 μg/mL) and incubated for an additional 60 min at 37 °C. Following this, the reaction was initiated by adding 100 µM of the Succinyl-Ala-Ala-Pro-Phe-p-nitroanilide substrate (NJPeptide, Nanjing, China), and the mixture was incubated for another 60 min at 37 °C. Finally, the activity of CTRC was quantified by measuring the absorbance at 405 nm using a Cytation 5 plate reader (BioTek, Winooski, VT, USA).

[5] = biological target: T4, CTSB (Homo sapiens, UniProt P07858); test: Host protease selectivity test, Cathepsin B; format: biochemical; conditions: 5 and 50 μM
T4 construct: purchased SinoBiological, Beijing, China
Method: Target selectivity tests toward host proteases were conducted based on our previous method. Cathepsin B (CTSB) (SinoBiological, Beijing, China) at a final concentration of 100 nM was prepared in buffer with 20 mM sodium acetate, 1 mM EDTA, and 2 mM DTT (pH 5.5) and incubated for 30 min at 30 °C. Next, the working solution of CTSB was diluted into 500 pM with the reaction buffer (100 mM MES pH 6.0, 1 mM EDTA, 2 mM DTT, and 0.01% Tween-20) and kept for 30 min. Then, the FRET substrate Z-Phe-Arg-AMC (NJPeptide, Nanjing, China) at 5 μM was added to activate the enzymatic reaction. The fluorescence signals were measured using a Cytation 5 plate reader (BioTek, Winooski, VT, USA) at 360 nm (excitation)/460 nm (emission) for 20 min.

[6] = biological target: human ACE2 (Homo sapiens, UniProt Q9BYF1); test: SPR binding to immobilized ACE2
Chain of human ACE2 (Q9BYF1 18-805): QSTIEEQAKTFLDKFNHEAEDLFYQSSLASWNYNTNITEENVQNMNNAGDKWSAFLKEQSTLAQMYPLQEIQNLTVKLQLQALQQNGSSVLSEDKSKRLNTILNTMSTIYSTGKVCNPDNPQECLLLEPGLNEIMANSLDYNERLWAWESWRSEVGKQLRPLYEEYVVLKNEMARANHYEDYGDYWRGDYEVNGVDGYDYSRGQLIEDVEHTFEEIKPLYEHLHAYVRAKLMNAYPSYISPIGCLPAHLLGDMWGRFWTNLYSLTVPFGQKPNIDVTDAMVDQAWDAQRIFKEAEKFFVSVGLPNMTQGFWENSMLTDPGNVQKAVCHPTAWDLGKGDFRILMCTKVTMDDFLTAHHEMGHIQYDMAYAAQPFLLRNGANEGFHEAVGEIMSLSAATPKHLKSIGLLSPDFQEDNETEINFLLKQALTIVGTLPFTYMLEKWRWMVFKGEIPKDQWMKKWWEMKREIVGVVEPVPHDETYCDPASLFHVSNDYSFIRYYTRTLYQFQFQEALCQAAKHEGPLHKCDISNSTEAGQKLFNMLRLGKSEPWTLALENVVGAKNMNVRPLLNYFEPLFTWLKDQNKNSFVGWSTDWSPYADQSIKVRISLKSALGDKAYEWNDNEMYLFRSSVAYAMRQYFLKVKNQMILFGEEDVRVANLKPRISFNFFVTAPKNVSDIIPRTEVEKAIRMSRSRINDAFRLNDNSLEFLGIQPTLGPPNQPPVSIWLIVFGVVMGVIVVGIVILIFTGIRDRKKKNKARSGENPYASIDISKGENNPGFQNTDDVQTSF
Method: ACE2 and S-RBD were separately immobilized onto a CM5 chip via amine coupling in sodium acetate buffer (pH 4.0 for ACE2 and pH 5.5 for S-RBD) at a flow rate of 10 μL/min. After the chip surface was activated with NHS and EDC, ACE2 and S-RBD were injected at concentrations of 20 μg/mL and 30 μg/mL, respectively, and the surface was blocked using ethanolamine. […] All measurements were performed in PBS buffer (0.05% Tween-20, 5% DMSO, pH 7.4) at 25 °C, with corrections applied to address refractive index shifts and data drift. The binding affinities were quantified by fitting the interaction data to a Langmuir 1:1 binding model using Biacore Evaluation software.

[7] = Cell viability assay (CCK-8) on Vero-E6 cells; conditions: African green monkey
[8] = test system: SARS-CoV-2-S pseudovirus Gamma; test: microbe, parasite or virus in culture; format: cell-based
[9] = test system: SARS-CoV-2-S pseudovirus Delta; test: microbe, parasite or virus in culture; format: cell-based
[10] = in vitro; conditions: human
[11] = biological target: SARS-CoV-2 S-RBD (Severe acute respiratory syndrome coronavirus 2, UniProt P0DTC2); test: biochemical; format: binding
[12] = biological target: SARS-CoV 3CL^pro (Severe acute respiratory syndrome coronavirus, UniProt P0C6X7); test: biochemical
[13] = biological target: MERS-CoV 3CL^pro (Middle East respiratory syndrome-related coronavirus, UniProt K9N7C7); test: biochemical
Chain of MERS-CoV 3CL^pro (K9N7C7 3248-3553 limits assumed): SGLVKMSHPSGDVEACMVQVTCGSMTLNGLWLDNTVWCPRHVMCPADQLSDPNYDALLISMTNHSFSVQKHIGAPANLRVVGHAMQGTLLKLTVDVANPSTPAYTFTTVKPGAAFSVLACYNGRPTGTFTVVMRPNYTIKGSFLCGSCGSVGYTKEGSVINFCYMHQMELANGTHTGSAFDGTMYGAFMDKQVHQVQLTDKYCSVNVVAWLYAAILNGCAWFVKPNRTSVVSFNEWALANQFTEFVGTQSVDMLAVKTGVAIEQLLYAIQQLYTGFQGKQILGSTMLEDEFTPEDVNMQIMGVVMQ

[14] = biological target: T5, TMPRSS2 (Homo sapiens, UniProt O15393); test: Host protease selectivity test, TMPRSS2; format: biochemical
T5 construct: purchased MedChemExpress, Shanghai, China
T5 sequence (O15393 whole entry): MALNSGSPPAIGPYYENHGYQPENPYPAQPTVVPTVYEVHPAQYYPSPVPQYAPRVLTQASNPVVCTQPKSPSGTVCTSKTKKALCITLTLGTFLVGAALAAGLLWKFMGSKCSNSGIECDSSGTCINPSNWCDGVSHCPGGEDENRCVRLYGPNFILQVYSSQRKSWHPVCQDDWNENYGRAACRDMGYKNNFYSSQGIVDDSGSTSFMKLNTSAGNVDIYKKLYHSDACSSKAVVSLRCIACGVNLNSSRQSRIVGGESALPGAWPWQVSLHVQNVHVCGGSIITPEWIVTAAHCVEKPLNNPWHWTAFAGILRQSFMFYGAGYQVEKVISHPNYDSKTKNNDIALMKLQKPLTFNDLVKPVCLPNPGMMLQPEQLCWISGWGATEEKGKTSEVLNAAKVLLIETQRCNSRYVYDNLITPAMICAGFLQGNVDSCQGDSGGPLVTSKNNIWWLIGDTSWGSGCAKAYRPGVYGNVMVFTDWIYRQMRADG
Method: TMPRSS2 protease at the concentration of 5 nM (MedChemExpress, Shanghai, China) was incubated with compounds in the reaction buffer (50 mM Tris-HCl, 1 mM CaCl2, 0.1% Tween 20, pH 8.0) for 1 h at 37 °C. Then, 45 μM substrate Boc-GIn-Ala-Arg-AMC (NJPeptide, Nanjing, China) was added to initiate the reaction. Fluorescence intensity was detected using a Cytation 5 plate reader at 380 nm (excitation)/460 nm (emission) for 1.5 h.

[15] = test system: SARS-CoV-2-S pseudovirus Omicron; test: microbe, parasite or virus in culture; format: cell-based
[16] = biological target: T1, SARS-CoV-2 3CL^pro
[17] = design: method as in doi:10.1177/009286150103500134; conditions: cited from earlier work
[18] = biological target: T1, SARS-CoV-2 3CL^pro; test: biochemical
[19] = test system: SARS-CoV-2-S pseudovirus; test: microbe, parasite or virus in culture; format: cell-based; conditions: for IC50: Pseudovirus, read-out: IC50, pseudovirus activity inhibition
[20] = biological target: SARS-CoV-2 S-RBD/ACE2 interaction (Severe acute respiratory syndrome coronavirus 2, UniProt P0DTC2); format: cell-based
[21] = biological target: T1, SARS-CoV-2 3CL^pro; conditions: cited from earlier work; remark: listed apart in the source

## COC(=O)[C@@H](Cc1ccc(O)c(O)c1)OC(=O)/C=C/c1ccc(O)c(O)c1 [Methyl rosmarinate]
[1]
  IC50: 2.5 µM

## O=C(c1cc(O)c(O)c(O)c1)c1ccc(O)c(O)c1O [Exifone]
[2]
  inhibition of CTSL: neither compound significantly inhibited
[3]
  type of inhibition: non-competitive inhibition with an allosteric mechanism
[4]
  inhibitory activity against CTRC: significant inhibitory activity
[5]
  inhibition of CTSB: neither compound significantly inhibited
[6]
  Kd: 1.93 µM
[6]; SPR, immobilized ACE2
  kd: 0.00045 s⁻¹
[7]; Vero-E6 cells
  CC50 at 24 h: > 100 µM
[8]
  IC50: 159 ± 4.95 µM
[9]
  IC50: 150 ± 5.06 µM
[10]
  CC50: > 200 µM
[11]
  Kd: 0.818 µM
[12]
  IC50: 3.36 ± 0.08 µM
[13]
  IC50: 13.9 ± 0.38 µM
[14]
  inhibition of TMPRSS2: neither compound significantly inhibited
[15]
  IC50: 55.1 ± 6.15 µM
[16]
  TDI effect: did not exhibit a significant TDI effect
[17]
  reason for withdrawal from the market: hepatotoxicity
[18]; read-out: inhibition of SARS-CoV-2 3CLpro activity
  inhibition at 5 µM: > 50%
[19]
  IC50: 76.5 ± 32.6 µM
[20]
  S-RBD binding signal on Vero-E6 cells: marked reduction in the S-RBD binding signal

## COc1cc(-c2oc3cc(O)cc(O)c3c(=O)c2O[C@@H]2O[C@H](CO[C@@H]3O[C@@H](C)[C@H](O)[C@@H](O)[C@H]3O)[C@@H](O)[C@H](O)[C@H]2O)cc(O)c1O [Laricitrin 3-rutinoside]
[18]
  IC50: 3.82 µM

## C[C@@H]1O[C@@H](OC[C@H]2O[C@@H](Oc3c(-c4cc(O)c(O)c(O)c4)oc4cc(O)cc(O)c4c3=O)[C@H](O)[C@@H](O)[C@@H]2O)[C@H](O)[C@H](O)[C@H]1O [Myricetin-3-O-rutinoside]
[18]
  IC50: 0.85 µM

## C/C=C1/[C@H](O[C@@H]2O[C@H](CO)[C@@H](O)[C@H](O)[C@H]2O)OC=C(C(=O)OC)[C@H]1CC(=O)OCCc1ccc(O)c(O)c1 [Oleuropein]
[1]
  IC50: 3.5 µM

## NC(CO)C(=O)NNCc1ccc(O)c(O)c1O (centres unmarked) [Benserazide hydrochloride]
[2]
  inhibition of CTSL: neither compound significantly inhibited
[4]
  inhibitory activity against CTRC: did not
[5]
  inhibition of CTSB: neither compound significantly inhibited
[7]
  CC50 at 24 h: > 100 µM
[10]
  CC50: > 200 µM
[12]
  IC50: 3.04 ± 0.4 µM
[13]
  IC50: 8.81 ± 0.34 µM
[14]
  inhibition of TMPRSS2: neither compound significantly inhibited
[19]
  inhibition of pseudovirus entry into host cells: lacked the capacity to inhibit pseudovirus entry into host cells
  IC50: > 200 µM

## O=c1cc(-c2ccc(O)cc2)oc2cc(O)cc(O)c12 [Apigenin]
[21]
  IC50: 84.9 µM

## Oc1cc(O)c2c(c1)O[C@H](c1ccc(O)c(O)c1)[C@H](O)C2 [Epicatechin]
[18]
  IC50: 3.3 µM

## O=C(/C=C/c1ccc(O)cc1)c1ccc(O)cc1O [Isoliquiritigenin]
[18]
  IC50: 73.9 µM

## O=c1cc(-c2ccc(O)c(O)c2)oc2cc(O)cc(O)c12 [luteolin]
[21]
  IC50: 74.9 µM
